The values that follow come from US7488825B2 (Kabushiki Kaisha Yakult Honsha, priority 2003, dated 2009).

Where a name gives a salt, the structure may show the parent alone. Some results are limits rather than exact numbers.

Series [1] is described as follows: Solubility measurement in preparation solution (water solubility). In kind it is physicochemical. To be noted: hydrochloride; for water solubility: pH3.5; for dissolution amount: preparation solution (D-sorbitol, lactic acid, pH about 3.5), shaken at 22° C. for 30 minutes. How it is done: About 0.5 g of b- or c-type crystals were weighed out, suspended in a preparation solution, and shaken at 22° C. for 30 minutes (130 r/min). The mixture was filtered by a membrane filter (0.45 μm). To 1 ml of the filtrate, the preparation solution was added up to 200 mL. 10 μl was aliquoted and analyzed by liquid chromatography. The dissolution amount was obtained on the basis of a calibration curve previously prepared.
Note that the preparation solution used herein was prepared by dissolving 45 g of D-sorbitol in an appropriate amount of distilled water for injection, adding 900 mg of lactic acid, adjusting pH of the solution at about 3.5, and adding distilled water for injection up to 1000 mL.

The nature of series [2]: Change of dissolution state over time (30 mg/mL in preparation solution). In kind it is physicochemical. The conditions noted are these: shaken for several minutes.

On to `CCc1c2c(nc3ccc(OC(=O)N4CCC(N5CCCCC5)CC4)cc13)-c1cc3c(c(=O)n1C2)COC(=O)[C@]3(O)CC` [c-type crystals, irinotecan hydrochloride], for which the water solubility in series [1] was no less than 100 mg/mL. With `CCc1c2c(nc3ccc(OC(=O)N4CCC(N5CCCCC5)CC4)cc13)-c1cc3c(c(=O)n1C2)COC(=O)[C@]3(O)CC` [No. 3, irinotecan hydrochloride], the dissolution amount in series [1] was no less than 100 mg/mL.

As to `CCc1c2c(nc3ccc(OC(=O)N4CCC(N5CCCCC5)CC4)cc13)-c1cc3c(c(=O)n1C2)COC(=O)[C@]3(O)CC` [b-type crystals, irinotecan hydrochloride], in series [1], the water solubility amounted to 11.4 mg/mL and the dissolution amount came out at 11.4 mg/mL. In addition, the “temperature needed to dissolve” value in series [2] was “about 70 °C”.
